How the values were obtained:
FS neurons = assay: Current clamp recording of spiking in FS neurons; type: cell-based, rat
Text: Tissue preparation. […] Hippocampal interneurons and GP were identified as CaMKII negative, GAD67 and parvalbumin positive neurons by single cell RT-PCR detection of corresponding mRNAs following physiology experiments (see below).
Electrophysiology. Whole-cell recordings used standard techniques^27,28. The internal solution consisted of (in mM): 30-90 K2SO4, 0-60 N-methyl-D-glucamine, 2 MgCl2, 40 HEPES, 5 EGTA, 12 phosphocreatine, 2 Na2ATP, 0.2 Na3GTP, and 0.1 leupeptin, pH 7.2 with H2SO4 (osmolarity 260-270 mOsm/l). The external solution consisted of (in mM): 140 Na-isethionate, 2 KCl, 4 MgCl2, 10 HEPES, 12 glucose and 0.001 TTX, pH 7.35 with NaOH (osmolarity 295-305 mOsm/l). The internal solution for current clamp recordings consisted of (in mM) 110 potassium methylsulphate, 2 MgCl2, 40 HEPES, 5 EGTA, 12 phosphocreatine, 2 Na2ATP, 0.2 Na3GTP, and 0.1 leupeptin, pH 7.2 with H2SO4 (osmolarity 260-270 mOsm/l). In the case of current clamp recordings, TTX was omitted from external solution. For the recordings in the presence of Ca^+2 ions EGTA was omitted from internal solution and 4 mM of MgCl2 was substituted by 2 mM of CaCl2 and 2 mM of MgCl2. All drugs were obtained from Sigma (St. Louis, […]) except BDS-I that was obtained from Alomone Labs (Jerusalem, Israel). Solutions were applied by gravity fed sewer pipe system. Recordings were obtained with Axon Instruments 200 patch-clamp amplifier and controlled and monitored with a PC running pClamp software (version 7.0) (Axon Instruments Inc., Union City, Calif.). […] After seal rupture, series resistance (2-10 MΩ) was compensated (75-90%) and periodically monitored. […] Activation data were fit with a Boltzmann equation of the form: 1/(1+exp ((Vh−V)/Vc), V stands for membrane potential. In the case of Kv3.4a current, an estimate of peak current was obtained by single exponential fit of decay phase extrapolated to the start of test pulse. In all other instances the voltage dependence of the currents was obtained from the amplitude of tail currents measured following 200 msec long voltage steps. […]

Kv3.1 channel = target: T1, Kv3.1 channel (Rattus norvegicus, UniProt P25122); details: low micromolar concentrations; cited from earlier work
T1 sequence (P25122 1-585): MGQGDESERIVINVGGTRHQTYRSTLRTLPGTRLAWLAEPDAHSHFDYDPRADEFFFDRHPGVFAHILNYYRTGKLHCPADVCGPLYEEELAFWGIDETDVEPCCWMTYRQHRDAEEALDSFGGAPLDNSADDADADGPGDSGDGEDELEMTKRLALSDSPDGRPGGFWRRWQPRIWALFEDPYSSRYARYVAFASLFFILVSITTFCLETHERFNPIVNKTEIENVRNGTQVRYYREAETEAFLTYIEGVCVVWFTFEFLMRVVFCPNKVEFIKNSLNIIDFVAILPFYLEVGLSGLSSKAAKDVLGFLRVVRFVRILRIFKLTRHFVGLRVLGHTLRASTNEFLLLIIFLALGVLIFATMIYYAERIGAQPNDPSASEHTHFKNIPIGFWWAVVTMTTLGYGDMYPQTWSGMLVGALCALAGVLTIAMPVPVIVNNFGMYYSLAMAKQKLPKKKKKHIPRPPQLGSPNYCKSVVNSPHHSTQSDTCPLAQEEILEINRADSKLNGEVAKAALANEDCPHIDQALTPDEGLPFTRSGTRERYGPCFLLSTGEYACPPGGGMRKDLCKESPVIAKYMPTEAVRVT

[1] = test system: K+ channels in the Kv1, Kv2, Kv3, and Kv4 subfamilies; details: cited from earlier work

BDS-I (AAPCFCSGKPGRGDLWILRGTCPGGYGYTSNCYKWPNICCYPH)
change in the rate of rise in the spike (FS neurons): no obvious change | increase of duration of spikes in FS neurons (FS neurons; BDS-I 2 μM, extracellular Ca2+ 2 mM, n=4): 53+13% | rate of repetitive spiking evoked by sustained current injection (FS neurons; with and without extracellular Ca2+): slowed | effects on Kv3.1 channel currents (Kv3.1 channel): only minor effects | block of other K+ channels in the Kv1, Kv2, Kv3, and Kv4 subfamilies [1]: failed to block

— US7629323B2, “Manipulation of neuronal ion channels” (Northwestern University, priority 2003, dated 2009)
